Here are results for ten compounds from patent US4803208A, “Opiate agonists and antagonists” (Sloan-Kettering Institute For Cancer Research, priority 1985, dated 1989).

Series [1] has as its system prolactin release. Briefly: Prolactin release in vivo. The note with it: prolactin and growth hormone.
Series [2] relates to growth hormone release. Briefly: Growth hormone release in vivo. Conditions: prolactin and growth hormone.
Series [3] deals with opiate receptors. Briefly: Irreversible opiate receptor binding/blocking (general statements). The note with it: for potency of irreversible block of opiate binding in vitro relative to corresponding hydrazone: azine vs corresponding hydrazone; for removal of reversible ligand by washing (in words): two washes with incubation at 37° for 10 min. The method, then:
(§1) In brief, brain membranes were prepared and triplicate samples incubated with [^3 H] labelled ligands and designated drugs for 30 minutes at 25° C., followed by filtration over Whatman GF/B filters. […] Specific binding is defined as the difference in binding in the presence and absence of levallorphan (1 uM). […] Each tissue wash included incubation for 10 min. at 37° C., centrifugation and resuspension. Irreversibility experiments included four washes before binding assays were performed, unless otherwise stated.

Series [4] has as its system opiate receptors. Format: binding, rat. Conditions: for Change in Binding (Percent), [^3 H]D-ala^2 -D-leu^5 -enkephalin: compound 2 μM, 30 min 25° C., four washes, ligand 1 nM, mean ± s.e.m. of three experiments; for irreversible inhibition of [^3 H]D-ala^2 -D-leu^5 -enkephalin binding (in words): 2 μM. As to the method: as §1
(§2) To determine which compounds did irreversibly bind to the receptor, membranes were incubated with the various drugs (2 μM) and then the free and reversibly bound drug washed away (Table 2).
(§3) Rat brain membranes were prepared and incubated with the above drugs (2 μM) for 30 min at 25° C. and the tissue was then washed four times as described in the text to remove reversibly bound material. The results represent the means ±s.e.m. of three separate experiments utilizing [^3 H]D-ala^2 -D-leu^5 -enkephal in (1 nM) and [^3 H]dihydromorphine (0.8 nM). […] After 15 min the solution was added to tissue.

The nature of series [5]: Duration of action. It is filed as in vivo. The note with it: compared to conventional / currently available opiates.
Series [6] concerns the target T1, opiate receptors (Rattus norvegicus, UniProt P33535).
T1 construct: Rat brain homogenates were prepared as described; from tissue; host or cells: rat brain homogenate / membranes
Briefly: biochemical. It is filed as binding. The method, then:
as §1
IC50 values were determined by least square fits of a log-probit curve. The results are the means ±s.e.m. of three IC50 values determined in separate experiments.

For series [7], the target named is T1, opiate receptors. The series is described as follows: biochemical. It is filed as binding. The note with it: for irreversible inhibition of [^3 H]dihydromorphine binding (in words): 2 μM, various concentrations in b75 (FIG. 2); for inhibition at 2 µM: 0.5 h, read-out: Change in Binding (Percent), [^3 H]dihydromorphine. The method, then: Results are from a single experiment which has been replicated three times.
as §1, §2, §3
After incubating membranes with the specified drug, the membranes were extensively washed and a binding assay with [^3 H]dihydromorphine performed.

A short description of series [8]: Reaction of hydrazones to azines in solution. Conditions: acidic aqueous solutions; absolute ethanol or water/acetic acid (1%), 15 min.
Series [9] has as its system opiate receptors. Briefly: Irreversible inhibition of ^3 H-DADL binding, 100 nM, two washes. On the set-up: species or system rat. The note with it: for ^3 H-DADL Binding: 30 min 25° C., DADL 1 nM, control 1800 ± 53 cpm, triplicate ± S.E.M.; for ^3 H-DADL Binding, change: vs control, 30 min. As to the method: (§4) Each wash consisted of centrifugation, incubation at 37° for 10 min and centrifugation again. […] Bindig was then performed with either ^3 H-D-ala^2 -D-leu^5 -enkephalin (DADL) or ^3 H-dihydromorphine (DHM) both at 1 nM. Specific binding was determined as that displaceable by levallorphan at 1000 nM. All values represent the means of triplicate samples ±S.E.M.

The target of series [10] is T1, opiate receptors. Briefly: Irreversible inhibition of ^3 H-DHM binding, 100 nM, two washes. The note with it: for ^3 H-DHM Binding: 100 nM, 30 min 25° C., two washes, DHM 1 nM, control 3447 ± 273 cpm, triplicate ± S.E.M.; for inhibition at 0.1 µM: 0.5 h, read-out: ^3 H-DHM Binding, change. The method, then:
as §4

The subject of series [11] is mice. The series is described as follows: In vivo actions of naltrexone-oxymorphonazine (tailflick latencies). On the set-up: species or system mouse. Conditions: for Tailflick Latencies, Prior: baseline prior to 10 mg/kg s.c. As to the method: Groups of mice were injected subcutaneously with the stated drug and latencies in the tailflick test determined and compared to those obtained prior to testing. […] This compares with an analgesic rate of 100% of animals receiving oxymorphone HCl in other control experiments.

Series [12] deals with rats. The note with it: cited from earlier work.
For series [13], the system named is mice. The series is described as follows: Oxymorphonazine analgesia in vivo (Tail-Flick Assay). On the set-up: species or system mouse. Conditions: 25 μg in 5 μl of artificial CSF; for Analgesia (percent), 20 hr.: groups differ p<0.015, Fisher's Exact Test. The method, then:
Mice were injected with either oxymorphone or oxymorphonazine (both 25 μg in 5 μl of artificial CSF) under Ethrane/oxygen anesthesia and tested for analgesia at the stated time. Analgesia was determined by Tail-Flick Assay. Quantal criteria, the doubling of the baseline latency for each individual animal, was used. At 20 hours, the oxymorphone and oxymorphonazine groups differed from each other at p<0.015 level, as determined by Fisher's Exact Test.
On the technique in general: Thermal pain tests record how soon the animal reacts.

Setting [14] is: compound 2 μM, 30 min 25° C., four washes, ligand 0.8 nM, mean ± s.e.m. of three experiments.

SMILES strings stand for the structures. Structures can show the parent of a compound that is named as a salt. Where two headings read alike, the source gives them in different places.

T1 sequence (P33535 whole entry): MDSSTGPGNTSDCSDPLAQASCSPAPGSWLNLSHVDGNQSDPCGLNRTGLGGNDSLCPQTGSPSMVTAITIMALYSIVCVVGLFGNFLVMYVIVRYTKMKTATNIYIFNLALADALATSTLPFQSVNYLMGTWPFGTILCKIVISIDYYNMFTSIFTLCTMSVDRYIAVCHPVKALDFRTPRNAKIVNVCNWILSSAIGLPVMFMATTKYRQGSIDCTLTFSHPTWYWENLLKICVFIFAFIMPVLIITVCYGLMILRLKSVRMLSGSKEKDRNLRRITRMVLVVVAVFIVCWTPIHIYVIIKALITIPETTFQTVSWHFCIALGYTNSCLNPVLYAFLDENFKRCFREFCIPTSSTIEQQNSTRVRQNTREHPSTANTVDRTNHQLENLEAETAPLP

Turning to `CN1CC[C@]23c4c5ccc(O)c4O[C@H]2[C@@H](O)C=C[C@H]3[C@H]1C5` [Morphine, morphine], the “hormone release by morphine (in words)” value in [1] and in series [2] was “releases both hormones” in each case. The “irreversible inhibition of opiate receptor binding / activity (in words)” value in series [3] was “show no irreversible inhibition”.

For `C=CCN1CCC23c4c5ccc(O)c4OC2C(=NN=C2CCC4(O)C6Cc7ccc(O)c8c7C4(CCN6CC=C)C2O8)CCC3(O)C1C5` (centres unmarked) [Naloxonazine, naloxonazine], the “eliminated [^3 H]D-ala^2 -D-leu^5 -enkephalin binding” value in series [4] (2 uM, 30 min) is listed as “over 90%”. In addition, the “Change in Binding (Percent), [^3 H]D-ala^2 -D-leu^5 -enkephalin” value (from here on “Change in Binding (Percent)”) in [4] was -93% ± 4. For the same compound, in series [3] (low doses), the “dose reproducing the irreversible blockade of opiate receptor binding by naloxazone” value was found to be 50 nM. Also, the “duration of action (in words)” value in series [5] is “in the order of days”; in [5] (listed as naloxonazine), “lasting far longer than conventional opiates”.

One may read the IC50 as the concentration that gives 50% inhibition. A high value points to weaker potency in that assay. The compound `NN=C1CCC2(O)C3Cc4ccc(O)c5c4C2(CCN3CC2CC2)C1O5` (centres unmarked) [Naltrexazone, naltrexazone] returned an IC50 in [6] of 1.7 ± 0.2 nM. In addition, in series [4], the “irreversible inhibition of [^3 H]D-ala^2 -D-leu^5 -enkephalin binding (in words)” value is given as “small amount of inhibition” and the “Change in Binding (Percent)” value was -17 ± 19%. Further, the “irreversible inhibition of [^3 H]dihydromorphine binding (in words)” value in series [7] is on record as “small amount of inhibition”. In series [7] (setting [14]), the inhibition at 2 µM stood at 31 ± 26%. The “stability in solution: reaction to azine (in words)” value in [8] is listed as “A trace amount of azine was present”.

As to `Oc1ccc2c3c1OC1C(=NN=C4CCC5(O)C6Cc7ccc(O)c8c7C5(CCN6CC5CC5)C4O8)CCC4(O)C(C2)N(CC2CC2)CCC314` (centres unmarked) [Naltrexonazine, naltrexonazine], in [6], the IC50 worked out at 1.16 nM. In [4], the “Change in Binding (Percent)” value is given as -97 ± 3%. The inhibition at 2 µM in series [7] (setting [14]) came to 88 ± 12%. In series [9], the “^3 H-DADL Binding” value was determined as 653 ± 85 cpm and the “^3 H-DADL Binding, change” value is recorded as -65%. For the same compound, in [10], the “^3 H-DHM Binding” value was determined as 1183 ± 128 cpm and the inhibition at 0.1 µM turned out to be 66%. For the same compound, in series [11] (10 mg/kg s.c.), the “Tailflick Latencies, After 20 min” value worked out at 2.50 ± 0.36 s and the “Tailflick Latencies, After 40 min” value came out at 2.74 ± 0.49 s. Also, in series [11], the “Tailflick Latencies, Prior” value was found to be 2.50 ± 0.34 s. Further, the “potency of irreversible block of opiate binding in vitro relative to corresponding hydrazone” value in [3] is 20-40 fold. Besides, in series [3] (compared with naloxone and naltrexone), the “selectivity for mu1 class versus naloxone and naltrexone (in words)” value was “far more selective for the mu1 class of opiate binding sites”. Also, the “duration of action (in words)” value in [5] is listed as “in the order of days”. Also, in series [5] (listed as naltrexonazine), the “duration of action (in words)” value is “lasting far longer than conventional opiates”.

As to `O=C1CC[C@@]2(O)[C@H]3Cc4ccc(O)c5c4[C@@]2(CCN3CC2CC2)[C@H]1O5` [Naltrexone, naltrexone], in [11] (10 mg/kg s.c.), the “Tailflick Latencies, After 20 min” value is 2.37 ± 0.31 s and the “Tailflick Latencies, After 40 min” value came out at 2.59 ± 0.35 s. For the same compound, in [11], the “Tailflick Latencies, Prior” value was found to be 2.63 ± 0.27 s. Moreover, the “removal of reversible ligand by washing (in words)” value in series [3] is “effectively removed”. Besides, the “suppression of eating behavior (known)” value in [12] is “effectively suppress eating behavior in rats”.

For the compound `CN1CCC23c4c5ccc(O)c4OC2C(=NN=C2CCC4(O)C6Cc7ccc(O)c8c7C4(CCN6CC4CC4)C2O8)CCC3(O)C1C5` (centres unmarked) [Naltrexone-oxymorphonazine, naltrexone-oxymorphonazine], in series [9], the “^3 H-DADL Binding” value was 1205 ± 157 cpm and the “^3 H-DADL Binding, change” value is -33%. In [10], the “^3 H-DHM Binding” value amounted to 1487 ± 120 cpm and the inhibition at 0.1 µM is 57%. In series [11] (10 mg/kg s.c.), the “Tailflick Latencies, After 20 min” value stood at 2.20 ± 0.35 s and the “Tailflick Latencies, After 40 min” value came out at 2.29 ± 0.31 s. In series [11], the “Tailflick Latencies, Prior” value came to 2.44 ± 0.32 s. In [11] (doubling of baseline latencies, 10 mg/kg s.c.), the “animals analgesic (in words)” value is reported as “none of the animals receiving the mixed azine (naltrexone-oxymorphonazine) were analgesic”. Moreover, the “action in vivo (in words)” value in [11] (in vivo tests of mixed agonist/antagonist compounds) is on record as “act as antagonists”. Further, the “irreversible inhibition of opiate receptor binding / activity (in words)” value in series [3] is given as “appear to irreversibly bind the opiate receptors”.

Regarding `CN1CCC23c4c5ccc(O)c4OC2C(=NN)CCC3(O)C1C5` (centres unmarked) [Oxymorphazone, oxymorphazone], in series [4], the “irreversible inhibition of [^3 H]D-ala^2 -D-leu^5 -enkephalin binding (in words)” value is on record as “neither naloxazone nor oxymorphazone irreversibly inhibited the binding” and the “Change in Binding (Percent)” value is reported as 43% ± 24. The “irreversible inhibition of [^3 H]dihydromorphine binding (in words)” value in [7] is on record as “neither naloxazone nor oxymorphazone irreversibly inhibited the binding”. For the same compound, the inhibition at 2 µM in [7] (setting [14]) was -3%. Also, the “stability in solution: reaction to azine (in words)” value in series [8] is given as “no azine formation could be detected”.

Take `CN1CCC23c4c5ccc(O)c4OC2C(=NN=C2CCC4(O)C6Cc7ccc(O)c8c7C4(CCN6C)C2O8)CCC3(O)C1C5` (centres unmarked) [Oxymorphonazine, oxymorphonazine]: the “Change in Binding (Percent)” value in [4] is given as -59 ± 3%. Besides, the inhibition at 2 µM in series [7] came out at 71 ± 4%. In addition, in [13], the “Analgesia (percent), 1 hr.” value came out at 100%; the “Analgesia (percent), 4 hr.” value stood at 100%; the “Analgesia (percent), 10 hr.” value is reported as 100%; the “Analgesia (percent), 20 hr.” value turned out to be 44%. The “potency of irreversible block of opiate binding in vitro relative to corresponding hydrazone” value in [3] is 20-40 fold. Moreover, the “duration of action (in words)” value in series [5] is recorded as “lasting far longer than conventional opiates”.

Take `CN1CC[C@]23c4c5ccc(O)c4O[C@H]2C(=O)CC[C@@]3(O)[C@H]1C5` [Oxymorphone, oxymorphone]: in series [13], the “Analgesia (percent), 1 hr.” value is recorded as 100%; the “Analgesia (percent), 4 hr.” value was 78%; the “Analgesia (percent), 10 hr.” value was 33%; the “Analgesia (percent), 20 hr.” value came to 0%. Further, the “removal of reversible ligand by washing (in words)” value in series [3] is “effectively removed”.

With `CN1CC[C@]23c4c5ccc(O)c4O[C@H]2C(=O)CC[C@@]3(O)[C@H]1C5` [oxymorphone HCl], in series [11] (other control experiments), the analgesic rate worked out at 100%.
